Experimental data taken from PMC3569853 (European journal of medicinal chemistry, 2012).
Like-named read-outs stand apart in the source and are kept apart here.

What was measured:
[1] = target: T1, μ-opioid receptor (hMOR-CHO cells) (Homo sapiens, UniProt P35372); assay: biochemical; assay type: binding
[2] = target: δ-opioid receptor (hDOR-CHO cells) (Homo sapiens, UniProt P41143); assay: Opioid receptor binding assay, δ; conditions: for δ~ μ: selectivity ratio Ki δ / Ki μ
[3] = target: κ-opioid receptor (hKOR-CHO cells) (Homo sapiens, UniProt P41145); assay: Opioid receptor binding assay, κ; conditions: for Ki: [3H]-U69,593, CHO hKOR cells, full binding assay, ±SD; for κ/μ: selectivity ratio Ki κ / Ki μ
[4] = target: T1, μ-opioid receptor (hMOR-CHO cells); assay: biochemical
[5] = target: T1, μ-opioid receptor (hMOR-CHO cells); assay: Initial binding screen, estimated Ki; conditions: read-out: estimated Ki (μ)
[6] = read-out: Ki δ, [3H]-DADLE, CHO hDOR cells, full binding assay, ±SD

T1 sequence (P35372 whole entry): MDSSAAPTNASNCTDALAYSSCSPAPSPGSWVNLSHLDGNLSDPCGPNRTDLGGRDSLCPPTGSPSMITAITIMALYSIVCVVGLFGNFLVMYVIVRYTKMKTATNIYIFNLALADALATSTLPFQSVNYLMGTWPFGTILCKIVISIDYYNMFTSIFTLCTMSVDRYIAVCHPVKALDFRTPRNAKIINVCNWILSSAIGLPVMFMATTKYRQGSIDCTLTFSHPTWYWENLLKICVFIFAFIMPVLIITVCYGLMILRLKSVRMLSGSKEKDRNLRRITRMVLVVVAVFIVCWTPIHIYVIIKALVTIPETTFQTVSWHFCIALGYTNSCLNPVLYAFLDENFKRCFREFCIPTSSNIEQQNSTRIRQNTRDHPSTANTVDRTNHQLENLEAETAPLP
δ-opioid receptor (hDOR-CHO cells), sequence (P41143 whole entry): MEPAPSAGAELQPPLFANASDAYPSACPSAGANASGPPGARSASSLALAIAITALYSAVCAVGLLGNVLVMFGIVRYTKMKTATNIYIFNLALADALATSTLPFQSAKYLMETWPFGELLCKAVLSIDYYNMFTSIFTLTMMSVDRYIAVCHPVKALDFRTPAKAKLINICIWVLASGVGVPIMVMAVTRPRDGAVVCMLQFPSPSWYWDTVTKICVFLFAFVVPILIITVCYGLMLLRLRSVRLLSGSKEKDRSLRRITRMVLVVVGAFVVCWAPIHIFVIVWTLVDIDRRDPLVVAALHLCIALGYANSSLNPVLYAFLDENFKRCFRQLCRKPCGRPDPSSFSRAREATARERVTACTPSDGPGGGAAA
κ-opioid receptor (hKOR-CHO cells), sequence (P41145 whole entry): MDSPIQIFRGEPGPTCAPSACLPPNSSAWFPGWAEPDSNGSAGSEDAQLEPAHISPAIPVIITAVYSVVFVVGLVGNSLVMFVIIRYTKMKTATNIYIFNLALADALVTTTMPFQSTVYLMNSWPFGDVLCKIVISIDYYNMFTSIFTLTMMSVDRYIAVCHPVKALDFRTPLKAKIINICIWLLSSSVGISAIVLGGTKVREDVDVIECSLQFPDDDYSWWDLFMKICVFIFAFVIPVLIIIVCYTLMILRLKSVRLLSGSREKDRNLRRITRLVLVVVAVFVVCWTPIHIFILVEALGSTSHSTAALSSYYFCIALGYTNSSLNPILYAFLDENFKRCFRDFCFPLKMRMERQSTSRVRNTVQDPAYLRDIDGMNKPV

Row | Compound | Ki ([1]; read-out: Ki μ) | Ki [2, 6] | δ~ μ [2] | Ki ([3]; read-out: Ki κ) | κ/μ [3] | Ke μ [4] | potency estimated from few doses [5] | Ki ([1]; Ki μ) | Ki [2] | Ki ([3]; Ki κ) | Kb [4]
1 | 13-phenethyl-2,3,4,9,10,10a-hexahydro-1H-1,4a-(epiminoethano)-phenanthrene-8,9α-diol [Compound 12] | 14 ± 2 nM | > 10000 nM | 714 | 525 ± 39 nM | 38 | 6 ± 1 nM |  |  |  |  | 
2 | O=C1CC2C3CCCC2(CCN3CCc2ccccc2)c2cccc(O)c21 (stereo not drawn) [Compound 9, 8-hydroxy-13-phenethyl-3,4,10,10a-tetrahydro-1H-1,4a-(epiminoethano)phenanthren-9(2H)-one] |  |  |  |  |  |  | 297 nM |  |  |  | 
3 | Oc1cccc2c1CCC1C3CCCC21CCN3CCc1ccccc1 (stereo not drawn) [Compound 17, 13-phenethyl-2,3,4,9,10,10a-hexahydro-1H-1,4a-(epiminoethano)phenanthrene-8-ol] |  |  | 135 |  | 42 |  |  | 21 ± 5 nM | 2830 ± 223 nM | 873 ± 101 nM | 7 ± 1.8 nM
4 | O=C1CC2C3CCCC2(CCN3CCc2ccccc2)c2cc(O)ccc21 (stereo not drawn) [Compound 18, 6-hydroxy-13-phenethyl-3,4,10,10a-tetrahydro-1H-1,4a-(epiminoethano)phenanthren-9(2H)-one] |  |  |  |  |  |  | 80 nM |  |  |  | 
5 | CN1CCC23CCCC1C2C=Cc1ccc(O)cc13 (stereo not drawn) [Compound 20, 13-methyl-2,3,4,10a-tetrahydro-1H-1,4a-(epiminoethano)phenanthren-6-ol] |  |  | 175 |  | 71 |  | 67 nM | 57 ± 6 nM | > 10000 nM | 4040 ± 363 nM | 
6 | Oc1cccc2c1C=CC1C3CCCC21CCN3CCc1ccccc1 (stereo not drawn) [Compound 16, 13-phenethyl-2,3,4,10a-tetrahydro-1H-1,4a-(epiminoethano)phenanthren-8-ol] |  |  | 97 |  | 19 |  |  | 19 ± 4 nM | 1840 ± 212 nM | 369 ± 26 nM | 1.7 ± 0.26 nM
7 | 13-phenethyl-2,3,4,9,10,10a-hexahydro-1H-1,4a-(epiminoethano)phenanthrene-8,9β-diol [Compound 13] |  | > 10000 nM | 56 | 923 ± 32 nM | 5 |  |  |  |  |  | 
8 | 13-methyl-2,3,4,9,10,10a-hexahydro-1H-1,4a-(epiminoethano)-phenanthrene-8,9α-diol [Compound 10] | 30 ± 6 nM | 3220 ± 332 nM | 107 | 2020 ± 169 nM |  | 706 ± 135 nM |  |  |  |  | 
9 | Oc1ccc2c(c1)C13CCCC(C1CC2)N(CCc1ccccc1)CC3 (stereo not drawn) [Compound 24, 13-phenethyl-2,3,4,9,10,10a-hexahydro-1H-1,4a-(epiminoethano)phenanthren-6-ol] |  |  | 81 |  | 27 |  |  | 2.3 ± 0.2 nM | 186 ± 25 nM | 61 ± 6 nM | 0.71 ± 0.13 nM
10 | CN1CCC23CCCC1C2C=Cc1c(O)cccc13 (stereo not drawn) [Compound 14, 13-methyl-2,3,4,10a-tetrahydro-1H-1,4a-(epiminoethano)phenanthren-8-ol] |  |  | 149 |  | 58 |  |  | 67 ± 7 nM | > 10000 nM | 3890 ± 441 nM | 
11 | Oc1ccc2c(c1)C13CCCC(C1C=C2)N(CCc1ccccc1)CC3 (stereo not drawn) [Compound 23, 13-phenethyl-2,3,4,10a-tetrahydro-1H-1,4a-(epiminoethano)phenanthren-6-ol] |  |  | 49 |  | 20 |  |  | 2.6 ± 0.35 nM | 127 ± 31 nM | 51 ± 4 nM | 0.34 ± 0.07 nM
12 | 13-phenethyl-2,3,4,9,10,10a-hexahydro-1H-1,4a-(epiminoethano)-phenanthrene-6,9α-diol [Compound 22] | 72 ± 10 nM | > 10000 nM | 139 | 1810 ± 95 nM | 25 |  |  |  |  |  | 
